Calls of active or inactive are those of the source. No cut-off for these calls is given here.
Columns and labels:
[1] = system: A-427; assay: Antiproliferative activity against human A427 cells harboring K-Ras G12D mutant assessed as cell proliferation at 30 uM by CellTitre-Glo assay relative to control; format: functional; settings: read-out: Activity
[2] = system: A549; assay: Antiproliferative activity against human A549 cells harboring K-Ras G12C mutant assessed as cell proliferation at 10 to 30 uM by CellTitre-Glo assay; format: functional, cell-based
[3] = system: A-427; assay: Antiproliferative activity against human A427 cells harboring K-Ras G12D mutant assessed as cell proliferation at 10 uM by CellTitre-Glo assay relative to control; format: functional; settings: read-out: Activity

CC[C@H](C)[C@@H]1NC(=O)[C@H](Cc2ccc(O)cc2)NC(=O)[C@H](CC(C)C)NC(=O)[C@@H]2CCCN2C(=O)[C@@H](NC(=O)[C@H](CCCNC(=N)N)NC(=O)[C@H](CCCNC(=N)N)NC(=O)[C@H](CCCNC(=N)N)NC(=O)[C@H](CCCNC(=N)N)NC(C)=O)CSCSC[C@@H](C(=O)N[C@@H](CCCNC(=N)N)C(=O)N[C@@H](CCCNC(=N)N)C(=O)N[C@@H](CCCNC(=N)N)C(=O)N[C@@H](CCCNC(=N)N)C(N)=O)NC(=O)[C@H](C(C)C)NC(=O)[C@@H]2CCCN2C(=O)[C@H](CC(=O)O)NC(=O)[C@H](Cc2ccc(O)cc2)NC(=O)[C@H](CO)NC1=O
growth at 30 µM [1]: 69.9% | Activity [2]: inactive | growth at 10 µM [3]: 91%
